Measurements: ChEMBL document CHEMBL1201862, “PubChem BioAssay data set” (2004)
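Each compound was tested at five concentrations against cells in 96-well plates for 48 hours. GI50 = concentration required for 50% inhibition of growth.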 Calls of active or inactive are those of the source. Cut-off read from the data, not from the text of the source: active = GI50 up to about 1.1 µM and inactive = higher.

Experiments:
Test in all cases: growth of human tumour cells (NCI), 48 h
SN12C = system: SN12C
SK-MEL-28 = system: SK-MEL-28
U-251 = system: U-251
SK-OV-3 = system: SK-OV-3
HCT-116 = system: HCT-116
SW-620 = system: SW-620
PC-3 = system: PC-3
SR = system: SR
UACC-62 = system: UACC-62
SF-295 = system: SF-295
K562 = system: K562
SF-268 = system: SF-268
NCI-H460 = system: NCI-H460
CCRF-CEM = system: CCRF-CEM
OVCAR-8 = system: OVCAR-8
786-0 = system: 786-0
TK-10 = system: TK-10
MOLT-4 = system: MOLT-4
HOP-62 = system: HOP-62

Measured: GI50

[O-][S+]1SC(=S)C2C=CC=CC21 (configuration not stated)
inactive: SN12C > 100 µM | SK-MEL-28 > 100 µM | U-251 > 100 µM | SK-OV-3 > 100 µM | HCT-116 85.5 µM | SW-620 > 100 µM | PC-3 > 100 µM | SR > 100 µM | UACC-62 58.5 µM | SF-295 88.9 µM | K562 > 100 µM | SF-268 > 100 µM | NCI-H460 34 µM | CCRF-CEM 2.37 µM | OVCAR-8 > 100 µM | 786-0 > 100 µM | TK-10 > 100 µM | MOLT-4 > 100 µM

CCCC(=O)NC(C(=O)OCC)(N1CCOCC1)C(F)(F)F (configuration not stated)
inactive: SN12C > 100 µM | SK-MEL-28 > 100 µM | U-251 > 100 µM | SK-OV-3 > 100 µM | HCT-116 > 100 µM | SW-620 > 100 µM | PC-3 > 100 µM | HOP-62 > 100 µM | SR > 100 µM | UACC-62 > 100 µM | SF-295 > 100 µM | K562 > 100 µM | SF-268 > 100 µM | CCRF-CEM > 100 µM | OVCAR-8 > 100 µM | 786-0 > 100 µM | TK-10 > 100 µM | MOLT-4 > 100 µM

CC1=C[C@H]([C@H]2C=C(C)C(C(N)=O)=CN2Cc2c(Cl)cccc2Cl)N(Cc2c(Cl)cccc2Cl)C=C1C(N)=O
inactive: SN12C > 75 µM | SK-MEL-28 > 75 µM | U-251 > 75 µM | SK-OV-3 > 75 µM | HCT-116 > 75 µM | SW-620 > 75 µM | PC-3 > 75 µM | HOP-62 > 75 µM | SR > 75 µM | UACC-62 > 75 µM | SF-295 > 75 µM | K562 > 75 µM | SF-268 > 75 µM | NCI-H460 > 75 µM | CCRF-CEM 45.4 µM | OVCAR-8 52.7 µM | 786-0 > 75 µM | TK-10 > 75 µM | MOLT-4 > 75 µM

CCCCC1Cc2ccccc2-c2n1c1ccccc1[n+]2C (configuration not stated)
inactive: SK-MEL-28 11.3 µM | U-251 3.1 µM | SK-OV-3 35.9 µM | HCT-116 17.6 µM | SW-620 23.7 µM | PC-3 5.93 µM | HOP-62 24.9 µM | SR 7.67 µM | SF-295 6.92 µM | K562 2.49 µM | SF-268 11.4 µM | NCI-H460 16.2 µM | CCRF-CEM 10.9 µM | OVCAR-8 21.9 µM | 786-0 38.2 µM | TK-10 22.8 µM | MOLT-4 12.3 µM
